{
  "source": "paper PMC6693646",
  "about": "(Neuropharmacology, 2019)",
  "key": {"rα6β4 nAChR": {"molecular_target": "rα6β4 nAChR (Rattus norvegicus, UniProt P12392+P43143)", "experiment": "cell-based"}, "rα9α10 nAChR": {"molecular_target": "rα9α10 nAChR (Rattus norvegicus, UniProt P43144+Q9JLB5)", "experiment": "cell-based"}, "rα2β4 nAChR": {"molecular_target": "rα2β4 nAChR (Rattus norvegicus, UniProt P12389+P12392)", "experiment": "cell-based"}, "rα3β4 nAChR": {"molecular_target": "rα3β4 nAChR (Rattus norvegicus, UniProt P04757+P12392)", "sequence (P04757 26-499 limits assumed)": "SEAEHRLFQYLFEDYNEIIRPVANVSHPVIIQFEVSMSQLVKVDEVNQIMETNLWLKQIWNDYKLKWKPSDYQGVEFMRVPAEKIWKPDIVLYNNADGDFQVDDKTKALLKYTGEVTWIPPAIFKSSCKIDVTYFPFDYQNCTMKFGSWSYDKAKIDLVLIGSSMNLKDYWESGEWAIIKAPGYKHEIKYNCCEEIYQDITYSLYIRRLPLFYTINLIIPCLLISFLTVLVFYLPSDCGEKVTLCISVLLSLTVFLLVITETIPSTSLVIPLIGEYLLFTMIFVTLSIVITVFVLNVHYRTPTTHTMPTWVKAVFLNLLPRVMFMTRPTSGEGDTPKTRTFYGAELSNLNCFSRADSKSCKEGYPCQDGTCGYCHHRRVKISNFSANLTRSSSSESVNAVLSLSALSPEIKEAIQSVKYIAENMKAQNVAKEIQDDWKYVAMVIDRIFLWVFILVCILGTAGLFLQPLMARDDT", "sequence (P12392 22-495 limits assumed)": "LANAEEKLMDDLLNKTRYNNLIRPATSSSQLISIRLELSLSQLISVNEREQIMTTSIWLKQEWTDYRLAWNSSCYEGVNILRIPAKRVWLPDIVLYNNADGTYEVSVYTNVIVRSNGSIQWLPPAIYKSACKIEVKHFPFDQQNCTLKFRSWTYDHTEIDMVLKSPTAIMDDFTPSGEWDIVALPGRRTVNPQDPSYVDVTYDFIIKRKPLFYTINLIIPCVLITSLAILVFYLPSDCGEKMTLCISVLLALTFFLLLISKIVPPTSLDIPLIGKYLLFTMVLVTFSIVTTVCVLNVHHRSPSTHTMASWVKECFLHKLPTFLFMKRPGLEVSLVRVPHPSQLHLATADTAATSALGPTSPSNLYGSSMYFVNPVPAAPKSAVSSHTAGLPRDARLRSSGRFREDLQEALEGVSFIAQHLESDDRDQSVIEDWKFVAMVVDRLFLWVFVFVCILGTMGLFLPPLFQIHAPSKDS", "experiment": "cell-based"}, "hα6/α3β2β3 nAChR": {"molecular_target": "hα6/α3β2β3 nAChR (Homo sapiens, UniProt P17787+P32297+Q05901+Q15825)", "experiment": "cell-based"}, "rα4β2 nAChR": {"molecular_target": "rα4β2 nAChR (Rattus norvegicus, UniProt P09483+P12390)", "sequence (P09483 31-630 limits assumed)": "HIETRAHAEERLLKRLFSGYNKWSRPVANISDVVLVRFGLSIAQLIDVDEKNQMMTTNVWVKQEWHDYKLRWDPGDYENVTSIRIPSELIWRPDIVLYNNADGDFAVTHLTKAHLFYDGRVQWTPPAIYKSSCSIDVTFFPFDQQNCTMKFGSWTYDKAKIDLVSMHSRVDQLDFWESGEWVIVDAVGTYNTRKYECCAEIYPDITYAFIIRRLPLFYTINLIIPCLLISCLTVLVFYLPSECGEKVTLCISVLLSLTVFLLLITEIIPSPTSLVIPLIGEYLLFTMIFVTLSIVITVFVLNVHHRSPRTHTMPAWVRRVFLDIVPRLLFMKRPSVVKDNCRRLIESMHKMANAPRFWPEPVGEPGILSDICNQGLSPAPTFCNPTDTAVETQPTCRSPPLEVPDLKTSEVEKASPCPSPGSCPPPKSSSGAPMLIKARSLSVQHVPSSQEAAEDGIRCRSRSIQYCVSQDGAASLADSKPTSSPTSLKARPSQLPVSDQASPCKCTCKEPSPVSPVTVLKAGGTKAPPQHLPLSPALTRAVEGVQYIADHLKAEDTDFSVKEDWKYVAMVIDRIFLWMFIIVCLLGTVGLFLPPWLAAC", "sequence (P12390 25-500 limits assumed)": "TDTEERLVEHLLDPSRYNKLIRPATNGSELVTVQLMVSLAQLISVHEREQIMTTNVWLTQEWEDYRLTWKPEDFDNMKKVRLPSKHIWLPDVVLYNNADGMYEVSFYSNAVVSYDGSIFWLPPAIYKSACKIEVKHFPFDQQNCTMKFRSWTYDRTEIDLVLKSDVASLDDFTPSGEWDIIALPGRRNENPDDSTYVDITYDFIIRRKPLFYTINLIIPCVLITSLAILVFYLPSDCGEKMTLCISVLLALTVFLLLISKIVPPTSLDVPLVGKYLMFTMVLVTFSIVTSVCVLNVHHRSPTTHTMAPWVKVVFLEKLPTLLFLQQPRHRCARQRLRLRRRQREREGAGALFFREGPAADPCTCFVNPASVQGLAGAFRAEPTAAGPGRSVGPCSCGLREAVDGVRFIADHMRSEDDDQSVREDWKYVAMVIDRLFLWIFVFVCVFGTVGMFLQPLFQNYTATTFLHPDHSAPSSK", "experiment": "cell-based", "type": "cell-based"}, "rα6/α3β2β3 nAChR [1]": {"molecular_target": "T1, rα6/α3β2β3 nAChR (Rattus norvegicus, UniProt P04757+P12390+P43143)", "T1 sequence (P43143 31-237 limits assumed)": "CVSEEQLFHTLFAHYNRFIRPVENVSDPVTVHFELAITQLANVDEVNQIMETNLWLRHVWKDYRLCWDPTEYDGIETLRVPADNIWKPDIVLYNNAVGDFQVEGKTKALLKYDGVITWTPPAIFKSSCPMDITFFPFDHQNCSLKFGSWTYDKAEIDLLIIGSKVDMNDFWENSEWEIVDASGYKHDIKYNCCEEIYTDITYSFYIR", "T1 sequence (P04757 233-499 limits assumed)": "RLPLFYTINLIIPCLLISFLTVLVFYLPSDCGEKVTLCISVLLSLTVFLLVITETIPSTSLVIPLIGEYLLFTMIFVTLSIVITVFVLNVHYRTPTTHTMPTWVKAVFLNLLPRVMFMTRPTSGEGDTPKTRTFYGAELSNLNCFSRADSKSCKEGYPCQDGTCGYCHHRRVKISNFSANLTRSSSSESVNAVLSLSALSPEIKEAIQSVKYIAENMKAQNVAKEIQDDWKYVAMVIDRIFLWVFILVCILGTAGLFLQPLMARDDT", "T1 sequence (P12390 25-500 limits assumed)": "as the sequence (P12390 25-500 limits assumed) above", "type": "cell-based"}, "rα7 nAChR": {"molecular_target": "rα7 nAChR (Rattus norvegicus, UniProt Q05941)", "sequence (Q05941 23-502 limits assumed)": "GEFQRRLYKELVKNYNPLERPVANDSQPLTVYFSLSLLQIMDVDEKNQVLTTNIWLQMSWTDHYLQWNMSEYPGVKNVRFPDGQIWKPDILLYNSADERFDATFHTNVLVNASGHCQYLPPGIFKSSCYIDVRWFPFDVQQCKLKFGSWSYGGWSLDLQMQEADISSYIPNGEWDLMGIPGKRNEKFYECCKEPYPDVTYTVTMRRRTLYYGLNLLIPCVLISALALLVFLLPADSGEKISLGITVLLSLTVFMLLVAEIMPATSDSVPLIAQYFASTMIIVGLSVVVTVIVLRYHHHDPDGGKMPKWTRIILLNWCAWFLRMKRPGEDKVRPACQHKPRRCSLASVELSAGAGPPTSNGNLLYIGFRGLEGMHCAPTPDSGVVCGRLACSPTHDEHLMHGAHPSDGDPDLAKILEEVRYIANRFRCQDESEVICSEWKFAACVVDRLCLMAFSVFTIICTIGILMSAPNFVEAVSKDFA", "experiment": "cell-based"}, "rα4β4 nAChR": {"molecular_target": "rα4β4 nAChR (Rattus norvegicus, UniProt P09483+P12392)", "sequence (P09483 31-630 limits assumed)": "as the sequence (P09483 31-630 limits assumed) above", "sequence (P12392 22-495 limits assumed)": "as the sequence (P12392 22-495 limits assumed) above", "experiment": "cell-based"}, "hα4β2 nAChR": {"molecular_target": "hα4β2 nAChR (Homo sapiens, UniProt P17787+P43681)", "experiment": "cell-based"}, "rα6/α3β4 nAChR [2]": {"molecular_target": "T2, rα6/α3β4 nAChR (Rattus norvegicus, UniProt P04757+P12392+P43143)", "T2 sequence (P43143 31-237 limits assumed)": "as the sequence (P43143 31-237 limits assumed) above", "T2 sequence (P04757 233-499 limits assumed)": "as the sequence (P04757 233-499 limits assumed) above", "T2 sequence (P12392 22-495 limits assumed)": "as the sequence (P12392 22-495 limits assumed) above", "type": "cell-based"}, "rα6/α3β4 nAChR [3]": {"molecular_target": "T2, rα6/α3β4 nAChR", "experiment": "cell-based"}, "rα2β2 nAChR": {"molecular_target": "rα2β2 nAChR (Rattus norvegicus, UniProt P12389+P12390)", "experiment": "cell-based"}, "hα6/α3β4 nAChR": {"molecular_target": "hα6/α3β4 nAChR (Homo sapiens, UniProt P30926+P32297+Q15825)", "sequence (P30926 whole entry, looked up)": "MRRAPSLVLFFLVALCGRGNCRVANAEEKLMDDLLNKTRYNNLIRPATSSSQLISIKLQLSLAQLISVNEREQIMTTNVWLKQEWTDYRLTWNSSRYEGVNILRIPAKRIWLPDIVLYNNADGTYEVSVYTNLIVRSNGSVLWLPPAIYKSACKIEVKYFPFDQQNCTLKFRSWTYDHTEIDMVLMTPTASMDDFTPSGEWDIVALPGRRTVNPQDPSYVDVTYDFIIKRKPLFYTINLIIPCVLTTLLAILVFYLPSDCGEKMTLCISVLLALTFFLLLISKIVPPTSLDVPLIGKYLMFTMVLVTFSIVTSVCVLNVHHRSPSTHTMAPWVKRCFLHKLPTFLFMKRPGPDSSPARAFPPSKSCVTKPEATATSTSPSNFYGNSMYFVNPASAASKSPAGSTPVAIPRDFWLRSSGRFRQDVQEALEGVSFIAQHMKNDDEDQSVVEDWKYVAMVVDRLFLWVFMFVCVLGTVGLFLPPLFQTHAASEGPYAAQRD", "sequence (P32297 whole entry, looked up)": "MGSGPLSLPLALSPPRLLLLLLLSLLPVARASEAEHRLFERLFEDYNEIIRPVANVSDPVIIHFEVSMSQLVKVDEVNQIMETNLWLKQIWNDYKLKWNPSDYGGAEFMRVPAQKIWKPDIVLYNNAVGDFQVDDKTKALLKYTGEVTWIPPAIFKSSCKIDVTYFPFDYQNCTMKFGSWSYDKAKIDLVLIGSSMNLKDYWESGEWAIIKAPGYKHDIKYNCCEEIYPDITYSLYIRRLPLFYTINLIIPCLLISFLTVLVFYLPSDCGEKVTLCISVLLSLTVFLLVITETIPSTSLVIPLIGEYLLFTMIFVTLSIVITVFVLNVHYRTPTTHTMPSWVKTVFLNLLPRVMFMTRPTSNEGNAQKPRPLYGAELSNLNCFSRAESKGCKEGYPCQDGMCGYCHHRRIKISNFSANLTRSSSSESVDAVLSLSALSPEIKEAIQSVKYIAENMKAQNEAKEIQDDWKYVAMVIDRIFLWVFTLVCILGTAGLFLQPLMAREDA", "sequence (Q15825 whole entry, looked up)": "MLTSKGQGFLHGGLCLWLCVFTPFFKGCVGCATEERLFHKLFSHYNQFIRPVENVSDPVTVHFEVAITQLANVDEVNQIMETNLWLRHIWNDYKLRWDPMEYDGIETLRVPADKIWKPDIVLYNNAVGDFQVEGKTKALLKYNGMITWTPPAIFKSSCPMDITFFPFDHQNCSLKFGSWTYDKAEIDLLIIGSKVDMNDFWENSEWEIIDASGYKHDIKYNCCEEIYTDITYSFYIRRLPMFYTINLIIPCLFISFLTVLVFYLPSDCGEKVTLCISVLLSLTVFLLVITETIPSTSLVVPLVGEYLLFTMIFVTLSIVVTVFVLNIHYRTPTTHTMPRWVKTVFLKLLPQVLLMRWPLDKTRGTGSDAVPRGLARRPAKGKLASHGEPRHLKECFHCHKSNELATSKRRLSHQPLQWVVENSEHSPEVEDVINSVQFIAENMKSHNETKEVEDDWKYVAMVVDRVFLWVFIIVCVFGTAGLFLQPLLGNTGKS", "experiment": "cell-based"}, "rα6/α3β2β3 nAChR [4]": {"molecular_target": "T1, rα6/α3β2β3 nAChR", "experiment": "cell-based"}, "rα3β2 nAChR": {"molecular_target": "rα3β2 nAChR (Rattus norvegicus, UniProt P04757+P12390)", "sequence (P04757 26-499 limits assumed)": "as the sequence (P04757 26-499 limits assumed) above", "sequence (P12390 25-500 limits assumed)": "as the sequence (P12390 25-500 limits assumed) above", "experiment": "cell-based"}, "hα3β4 nAChR": {"molecular_target": "hα3β4 nAChR (Homo sapiens, UniProt P30926+P32297)", "experiment": "cell-based"}, "[5]": {"settings": "read-out: inhibition of ACh-evoked current"}},
  "note": "Bridge positions count the residues as written; N and C are the ends. Peptide text beside a SMILES is read from it.",
  "data": [
    {"smiles": "CC(C)[C@@H]1NC(=O)[C@@H]2CCCN2C(=O)[C@H](Cc2c[nH]cn2)NC(=O)[C@H](CO)NC(=O)[C@@H]2CSSC[C@@H](C(=O)NCC(N)=O)NC(=O)[C@H](CC(N)=O)NC(=O)[C@@H]3CCCN3C(=O)[C@H](CC(N)=O)NC(=O)[C@H](CCCCN)NC(=O)[C@H]([C@@H](C)O)NC(=O)[C@H](Cc3ccc(O)cc3)NC(=O)[C@H](CSSC[C@H](NC(=O)CNC(=O)CN)C(=O)N2)NC1=O", "note": "[VnIB] (H-GGCCSHPVCYTKNPNCG-NH2; disulfide 3-9, 4-16)", "values": [
      {"measurement": "IC50", "setting": "rα6β4 nAChR", "value": 0.012, "unit": "µM"},
      {"measurement": "IC50", "setting": "rα9α10 nAChR", "value": "> 10", "unit": "µM"},
      {"measurement": "IC50", "setting": "rα2β4 nAChR", "value": "> 10", "unit": "µM"},
      {"measurement": "IC50", "setting": "rα3β4 nAChR", "value": 0.32, "unit": "µM"},
      {"measurement": "inhibition at 1 µM", "setting": "rα3β4 nAChR; [5]", "value": 80, "unit": "%"},
      {"measurement": "IC50", "setting": "hα6/α3β2β3 nAChR", "value": "> 10", "unit": "µM"},
      {"measurement": "IC50", "setting": "rα4β2 nAChR", "value": "> 10", "unit": "µM"},
      {"measurement": "effect on ACh-evoked response", "setting": "rα4β2 nAChR", "value": "no significant effect"},
      {"measurement": "reduction of ACh-evoked currents", "setting": "rα6/α3β2β3 nAChR [1]", "value": "~ 10%"},
      {"measurement": "IC50", "setting": "rα7 nAChR", "value": "> 10", "unit": "µM"},
      {"measurement": "IC50", "setting": "rα4β4 nAChR", "value": "> 10", "unit": "µM"},
      {"measurement": "IC50", "setting": "hα4β2 nAChR", "value": "> 10", "unit": "µM"},
      {"measurement": "reduction of ACh-evoked currents", "setting": "rα6/α3β4 nAChR [2]", "value": "~ 85%"},
      {"measurement": "koff", "setting": "rα6/α3β4 nAChR [3]", "value": 0.00437, "unit": "s⁻¹"},
      {"measurement": "kon", "setting": "rα6/α3β4 nAChR [3]", "value": 420000, "unit": "M⁻¹ s⁻¹"},
      {"measurement": "IC50", "setting": "rα2β2 nAChR", "value": "> 10", "unit": "µM"},
      {"measurement": "IC50", "setting": "hα6/α3β4 nAChR", "value": 0.0053, "unit": "µM"},
      {"measurement": "IC50", "setting": "rα6/α3β2β3 nAChR [4]", "value": 4, "unit": "µM"},
      {"measurement": "inhibition at 1 µM", "setting": "rα6/α3β2β3 nAChR [4]; [5]", "value": 23, "unit": "%"},
      {"measurement": "IC50", "setting": "rα3β2 nAChR", "value": "> 10", "unit": "µM"},
      {"measurement": "IC50", "setting": "hα3β4 nAChR", "value": "> 10", "unit": "µM"}
    ]}
  ]
}
